{
  "source": "patent US11767316B2",
  "about": "“Non-fused thiophene derivatives and their uses” (ENYO PHARMA, priority 2018, dated 2023)",
  "target": "T1, CISD3 Gene Product (Miner2) (Homo sapiens, UniProt P0C7P0)",
  "T1 sequence (P0C7P0 15-127)": "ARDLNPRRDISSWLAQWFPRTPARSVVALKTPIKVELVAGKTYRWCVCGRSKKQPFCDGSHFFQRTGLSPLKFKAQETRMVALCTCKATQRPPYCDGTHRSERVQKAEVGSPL",
  "experiment": "Stability of Fe-S cluster binding of purified NEET protein (absorbance 458 nm), Miner2",
  "type": "biochemical",
  "experimental": "The modulator effect on the NEET proteins encoded by human CISD1, CISD2, and CISD3 genes by the compounds of the invention has been tested and is reported below. Particularly, the biochemical function of the NEET proteins is measured by the stability of Fe—S cluster binding of the purified NEET proteins.\nThe Fe—S cluster binding capacity of NEET proteins is known to be coordinated by four amino-acids in a stretch of 16 (three Cysteine and one Histidine). As the lability of the Fe—S cluster of NEET proteins is sensitive to the environment, cluster stability measurements are one of the measures of interactions of NEET proteins with small molecules and compounds. NEET protein/2Fe-2S cluster stability can be assessed by monitoring the decay in absorbance of its characteristic 458-nm peak (characteristic of the oxidized 2Fe-2S cluster) over time. Each NEET protein (mitoNEET, NAF-1 and Miner 2) was tested for its Fe—S binding in the absence or presence of a compound according to the invention (see table 3 below). […]\nAt pH 6, all the three NEET proteins (mitoNEET, NAF-1 and Miner 2) have a characteristic rate of loss of the bound Fe—S cluster that can be measured by the decrease of absorbance at wavelength 458 nm over time, using a spectrophotometer. […]\nA reaction mix containing DMSO diluted in the Bis-Tris Buffer with or without a compound of the invention was prepared. […] The absorbance at wavelength 458 nm was taken at 5 minutes intervals at 37° C. with a spectrofluorimeter. […]\nIn addition to time monitoring, residual bound Fe—S cluster to NEET protein was measured at the final point of the spectrometry assay for each Test sample and compared to the Control sample data (in parenthesis table 3). This residual binding is measured by the differential percentage between the absorbance 458 nm at time zero and the absorbance 458 nm at the end of the experiment (i.e. respectively 500 or 180 minutes as described hereabove), showing the percentage of NEET protein still able to bind a Fe—S cluster. […]",
  "data": [
    {"molecule": "O=C(Nc1scc(C2CCc3ccccc3C2)c1C(=O)O)c1ccccc1", "note": "(stereo not drawn) [#16]", "values": [
      {"measurement": "Residual cluster bound at end of experiment (Percentage Absorbance 458 nm at time zero)", "setting": "CISD3 Gene Product, end of experiment 180 minutes, compound 60 μM, pH 6, vehicle control 11%", "value": "11% (11%)"},
      {"measurement": "Time (in minutes) to achieve 50% loss of bound cluster (Absorbance 458 nm)", "setting": "Miner2 20 μM, compound 60 μM, pH 6, 37° C., vehicle control 60", "value": "35 (60) minutes"},
      {"measurement": "Stabiliser or destabiliser of NEET protein/Fe-S cluster binding", "setting": "Miner2, destabiliser = time to 50% cluster loss decreased by more than 25% vs control", "value": "destabilisers"}
    ]}
  ]
}
